Test results: publication PMC8053501 (Diabetes, Metabolic Syndrome and Obesity: Targets and …, 2021)
Where two headings read alike, the source gives them in different places. Values belong to the molecule of their own block, whether it stands above or below them.

Assays:
in vivo = settings: male, ICR, mouse, po
[1] = normal mice, oral gavage, 3mg/kg
[2] = tested on: diabetes mellitus patients; test: Acute kidney injury; type: in vivo, human; settings: for Association with AKI, Unadjusted (95% CI) / Association with AKI, Adjusted (95% CI): metformin as reference; for Association with AKI, Adjusted (95% CI): multivariate; for Events During the 90 days (AKI): primary endpoint, first 90 days, patients above 55 years; for Total endpoint (AKI events): primary plus secondary endpoint; for Events at secondary end (AKI): secondary endpoint, after 90 days of hospital admission; for Total Percent (incidence rate of AKI at the end of the study): share of the 4966 total outcomes
[3] = Endpoint Diagnosis with 1047 Outcome
[4] = Secondary Diagnosis with 3919 Outcomes

Tmax (in vivo): 1 h
Tmax (in vivo; 3 mg/kg): 1 h
Cmax (in vivo; 3 mg/kg, oral gavage, Kidney): 4.51 µg/mL
Cmax (in vivo; 3 mg/kg, oral gavage, Liver): 3.98 µg/mL
Cmax (in vivo; 3 mg/kg, oral gavage, Plasma): 0.945 µg/mL
half-life (in vivo; 3 mg/kg, t1/2): 1.6 h
Drug concentration, time course ([1]; Kidney, 0h): 9860
Drug concentration, time course ([1]; Kidney, 3h): 7320
Drug concentration, time course ([1]; Kidney, 6h): 5670
Drug concentration, time course ([1]; Kidney, 9h): 2340
Drug concentration, time course ([1]; Kidney, 12h): 730
Drug concentration, time course ([1]; Kidney, 15h): 60
Drug concentration, time course ([1]; Kidney, 18h): 0
Drug concentration, time course ([1]; Kidney, 21h): 0
Drug concentration, time course ([1]; Kidney, 24h): 0
Drug concentration, time course ([1]; Liver, 0h): 12,110
Drug concentration, time course ([1]; Liver, 3h): 8700
Drug concentration, time course ([1]; Liver, 6h): 5470
Drug concentration, time course ([1]; Liver, 9h): 1350
Drug concentration, time course ([1]; Liver, 12h): 200
Drug concentration, time course ([1]; Liver, 15h): 30
Drug concentration, time course ([1]; Liver, 18h): 0
Drug concentration, time course ([1]; Liver, 21h): 0
Drug concentration, time course ([1]; Liver, 24h): 0
Drug concentration, time course ([1]; Plasma, 0h): 370
Drug concentration, time course ([1]; Plasma, 3h): 80
Drug concentration, time course ([1]; Plasma, 6h): 45
Drug concentration, time course ([1]; Plasma, 9h): 0
Drug concentration, time course ([1]; Plasma, 12h): 0
Drug concentration, time course ([1]; Plasma, 15h): 0
Drug concentration, time course ([1]; Plasma, 18h): 0
Drug concentration, time course ([1]; Plasma, 21h): 0
Drug concentration, time course ([1]; Plasma, 24h): 0
Structure (SMILES): CC1(C)S[C@@H]2[C@H](NC(=O)[C@H](N)c3ccc(O)cc3)C(=O)N2[C@H]1C(=O)O [Amoxicillin, amoxicillin]
Association with AKI, Unadjusted (95% CI) [2, 3]: 1.73 (1.16–1.85)
Association with AKI, Adjusted (95% CI) [2, 3]: 1.36 (1.06–1.54)
Association with AKI, Unadjusted (95% CI) [2, 4]: 1.17 (0.88–1.43)
Association with AKI, Adjusted (95% CI) [2, 4]: 1.34 (1.07–1.82)
Events During the 90 days (AKI) [2]: 48
Total endpoint (AKI events) [2]: 293
Events at secondary end (AKI) [2]: 245
Total Percent (incidence rate of AKI at the end of the study) [2]: 5.9%

Tmax (in vivo): 1 h
Tmax (in vivo; 3 mg/kg): 1 h
Cmax (in vivo; 3 mg/kg, oral gavage, Kidney): 1.74 µg/mL
Cmax (in vivo; 3 mg/kg, oral gavage, Liver): 1.15 µg/mL
Cmax (in vivo; 3 mg/kg, oral gavage, Plasma): 0.412 µg/mL
half-life (in vivo; 3 mg/kg, t1/2, mouse, oral gavage, Kidney): 2.1 h
half-life (in vivo; 3 mg/kg, t1/2, mouse, oral gavage, Liver): 2.2 h
half-life (in vivo; 3 mg/kg, t1/2, mouse, oral gavage, Plasma): 1.8 h
Drug concentration, time course ([1]; Kidney, 0h): 0
Drug concentration, time course ([1]; Kidney, 3h): 1800
Drug concentration, time course ([1]; Kidney, 6h): 1200
Drug concentration, time course ([1]; Kidney, 9h): 550
Drug concentration, time course ([1]; Kidney, 12h): 100
Drug concentration, time course ([1]; Kidney, 15h): 0
Drug concentration, time course ([1]; Kidney, 18h): 0
Drug concentration, time course ([1]; Kidney, 21h): 0
Drug concentration, time course ([1]; Kidney, 24h): 0
Drug concentration, time course ([1]; Liver, 0h): 0
Drug concentration, time course ([1]; Liver, 3h): 1100
Drug concentration, time course ([1]; Liver, 6h): 850
Drug concentration, time course ([1]; Liver, 9h): 400
Drug concentration, time course ([1]; Liver, 12h): 50
Drug concentration, time course ([1]; Liver, 15h): 0
Drug concentration, time course ([1]; Liver, 18h): 0
Drug concentration, time course ([1]; Liver, 21h): 0
Drug concentration, time course ([1]; Liver, 24h): 0
Drug concentration, time course ([1]; Plasma, 0h): 0
Drug concentration, time course ([1]; Plasma, 3h): 500
Drug concentration, time course ([1]; Plasma, 6h): 450
Drug concentration, time course ([1]; Plasma, 9h): 200
Drug concentration, time course ([1]; Plasma, 12h): 0
Drug concentration, time course ([1]; Plasma, 15h): 0
Drug concentration, time course ([1]; Plasma, 18h): 0
Drug concentration, time course ([1]; Plasma, 21h): 0
Drug concentration, time course ([1]; Plasma, 24h): 0
Structure (SMILES): OC[C@H]1O[C@@H](c2ccc(Cl)c(Cc3ccc(O[C@H]4CCOC4)cc3)c2)[C@H](O)[C@@H](O)[C@@H]1O [Jardiance]
Association with AKI, Unadjusted (95% CI) [2, 3]: 0.87 (0.69–1.12)
Association with AKI, Adjusted (95% CI) [2, 3]: 0.76 (0.58–1.18)
Association with AKI, Unadjusted (95% CI) [2, 4]: 0.83 (0.68–1.14)
Association with AKI, Adjusted (95% CI) [2, 4]: 0.85 (0.67–1.18)
Events During the 90 days (AKI) [2]: 57
Total endpoint (AKI events) [2]: 277
Events at secondary end (AKI) [2]: 220
Total Percent (incidence rate of AKI at the end of the study) [2]: 5.58%
